Assay results as given in patent publication US6136992A, “2-alkoxy estradiols and derivatives thereof” (The United States of America as represented by the …, priority 1998, dated 2000).

System: HL-60(TB)
Assay: NCI screen, leukemia
Type: cell-based
Details: Homo sapiens, read-out: Log10 GI50, HL-60(TB) (converted)

Work on `C[C@]12CC[C@@H]3c4cc(OCC(F)(F)F)c(O)cc4C(=NO)C[C@H]3[C@@H]1CC[C@@H]2O` [Compound 12, 2-(2',2', 2'-Trifluoroethoxy)-6-Hydroximino-Estra-1,3,5(10)-Triene-3,17β-Diol] yielded a GI50 of under 10 nM.
